In patent US20250223268A1, “4-Methylsulfonylbenzamide Compound, Preparation Method, Herbicidal Composition And Use” (Jiangsu Flag Chemical Industry Co., Ltd., priority 2022, published 2025):

Key:
Test in all cases: Greenhouse herbicidal activity assay, post-emergence
Assay type in all cases: in vivo
Conditions in all cases: Post-emergence test, rate 150 g a.i./hm^2, grade by fresh weight inhibition rate
Eclipta prostrata = test system: Eclipta prostrata
Summary of the method: (§1)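 Weeds were sown in nutrient soil in 7 cm pots and grown in a growth chamber to the 3-6 leaf stage, then foliar-sprayed, air-dried and returned to the chamber. Fresh weight inhibition was scored 14-21 days later in bands from A (≥80% to 100%) to E (<20%).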

Leptochloa chinensis = test system: Leptochloa chinensis
Summary of the method: as §1

Digitaria sanguinalis = test system: Digitaria sanguinalis
Summary of the method: as §1

Cyperus iria = test system: Cyperus iria
Summary of the method: as §1

Echinochloa crusgalli = test system: Echinochloa crusgalli
Summary of the method: as §1

CC(C)[S+]([O-])c1c(S(C)(=O)=O)ccc(C(=O)Nc2nnnn2C)c1Cl (racemic) [Compound 1-7]
Control efficacy grade, Eclipta prostrata (Eclipta prostrata): A (Fresh weight inhibition rate≥80% to 100%) | Control efficacy grade, Leptochloa chinensis (Leptochloa chinensis): A (Fresh weight inhibition rate≥80% to 100%) | Control efficacy grade, Digitaria sanguinalis (Digitaria sanguinalis): A (Fresh weight inhibition rate≥80% to 100%) | Control efficacy grade, Cyperus iria (Cyperus iria): A (Fresh weight inhibition rate≥80% to 100%) | Control efficacy grade, Echinochloa crusgalli (Echinochloa crusgalli): A (Fresh weight inhibition rate≥80% to 100%)

CCCC[S+]([O-])c1c(S(C)(=O)=O)ccc(C(=O)Nc2nnnn2C)c1Cl (racemic) [Compound 1-12]
Control efficacy grade, Eclipta prostrata (Eclipta prostrata): A (Fresh weight inhibition rate≥80% to 100%) | Control efficacy grade, Leptochloa chinensis (Leptochloa chinensis): A (Fresh weight inhibition rate≥80% to 100%) | Control efficacy grade, Digitaria sanguinalis (Digitaria sanguinalis): A (Fresh weight inhibition rate≥80% to 100%) | Control efficacy grade, Cyperus iria (Cyperus iria): A (Fresh weight inhibition rate≥80% to 100%) | Control efficacy grade, Echinochloa crusgalli (Echinochloa crusgalli): A (Fresh weight inhibition rate≥80% to 100%)

Cn1nnnc1NC(=O)c1ccc(S(C)(=O)=O)c([S+]([O-])CC2CC2)c1Cl (racemic) [Compound 1-28]
Control efficacy grade, Eclipta prostrata (Eclipta prostrata): A (Fresh weight inhibition rate≥80% to 100%) | Control efficacy grade, Leptochloa chinensis (Leptochloa chinensis): A (Fresh weight inhibition rate≥80% to 100%) | Control efficacy grade, Digitaria sanguinalis (Digitaria sanguinalis): A (Fresh weight inhibition rate≥80% to 100%) | Control efficacy grade, Cyperus iria (Cyperus iria): A (Fresh weight inhibition rate≥80% to 100%) | Control efficacy grade, Echinochloa crusgalli (Echinochloa crusgalli): A (Fresh weight inhibition rate≥80% to 100%)

Cn1nnnc1NC(=O)c1ccc(S(C)(=O)=O)c([S+]([O-])C2CC2)c1Cl (racemic) [Compound 1-33]
Control efficacy grade, Eclipta prostrata (Eclipta prostrata): A (Fresh weight inhibition rate≥80% to 100%) | Control efficacy grade, Leptochloa chinensis (Leptochloa chinensis): A (Fresh weight inhibition rate≥80% to 100%) | Control efficacy grade, Digitaria sanguinalis (Digitaria sanguinalis): A (Fresh weight inhibition rate≥80% to 100%) | Control efficacy grade, Cyperus iria (Cyperus iria): A (Fresh weight inhibition rate≥80% to 100%) | Control efficacy grade, Echinochloa crusgalli (Echinochloa crusgalli): A (Fresh weight inhibition rate≥80% to 100%)

Cn1nnnc1NC(=O)c1ccc(S(C)(=O)=O)c([S+]([O-])C2CCC2)c1Cl (racemic) [Compound 1-38]
Control efficacy grade, Eclipta prostrata (Eclipta prostrata): A (Fresh weight inhibition rate≥80% to 100%) | Control efficacy grade, Leptochloa chinensis (Leptochloa chinensis): B (Fresh weight inhibition rate≥260% to <80%) | Control efficacy grade, Digitaria sanguinalis (Digitaria sanguinalis): A (Fresh weight inhibition rate≥80% to 100%) | Control efficacy grade, Cyperus iria (Cyperus iria): A (Fresh weight inhibition rate≥80% to 100%) | Control efficacy grade, Echinochloa crusgalli (Echinochloa crusgalli): A (Fresh weight inhibition rate≥80% to 100%)

Cn1nnnc1NC(=O)c1ccc(S(C)(=O)=O)c([S+]([O-])C2CCCCC2)c1Cl (racemic) [Compound 1-48]
Control efficacy grade, Eclipta prostrata (Eclipta prostrata): A (Fresh weight inhibition rate≥80% to 100%) | Control efficacy grade, Leptochloa chinensis (Leptochloa chinensis): A (Fresh weight inhibition rate≥80% to 100%) | Control efficacy grade, Digitaria sanguinalis (Digitaria sanguinalis): A (Fresh weight inhibition rate≥80% to 100%) | Control efficacy grade, Cyperus iria (Cyperus iria): A (Fresh weight inhibition rate≥80% to 100%) | Control efficacy grade, Echinochloa crusgalli (Echinochloa crusgalli): A (Fresh weight inhibition rate≥80% to 100%)

Cn1nnnc1NC(=O)c1ccc(S(C)(=O)=O)c([S+]([O-])CC(F)F)c1Cl (racemic) [Compound 1-58]
Control efficacy grade, Eclipta prostrata (Eclipta prostrata): A (Fresh weight inhibition rate≥80% to 100%) | Control efficacy grade, Leptochloa chinensis (Leptochloa chinensis): A (Fresh weight inhibition rate≥80% to 100%) | Control efficacy grade, Digitaria sanguinalis (Digitaria sanguinalis): A (Fresh weight inhibition rate≥80% to 100%) | Control efficacy grade, Cyperus iria (Cyperus iria): B (Fresh weight inhibition rate≥260% to <80%) | Control efficacy grade, Echinochloa crusgalli (Echinochloa crusgalli): A (Fresh weight inhibition rate≥80% to 100%)

Cn1nnnc1NC(=O)c1ccc(S(C)(=O)=O)c([S+]([O-])CC#N)c1Cl (racemic) [Compound 1-63]
Control efficacy grade, Eclipta prostrata (Eclipta prostrata): A (Fresh weight inhibition rate≥80% to 100%) | Control efficacy grade, Leptochloa chinensis (Leptochloa chinensis): A (Fresh weight inhibition rate≥80% to 100%) | Control efficacy grade, Digitaria sanguinalis (Digitaria sanguinalis): B (Fresh weight inhibition rate≥260% to <80%) | Control efficacy grade, Cyperus iria (Cyperus iria): A (Fresh weight inhibition rate≥80% to 100%) | Control efficacy grade, Echinochloa crusgalli (Echinochloa crusgalli): A (Fresh weight inhibition rate≥80% to 100%)

C=CC[S+]([O-])c1c(S(C)(=O)=O)ccc(C(=O)Nc2nnnn2C)c1Cl (racemic) [Compound 1-68]
Control efficacy grade, Eclipta prostrata (Eclipta prostrata): A (Fresh weight inhibition rate≥80% to 100%) | Control efficacy grade, Leptochloa chinensis (Leptochloa chinensis): A (Fresh weight inhibition rate≥80% to 100%) | Control efficacy grade, Digitaria sanguinalis (Digitaria sanguinalis): A (Fresh weight inhibition rate≥80% to 100%) | Control efficacy grade, Cyperus iria (Cyperus iria): A (Fresh weight inhibition rate≥80% to 100%) | Control efficacy grade, Echinochloa crusgalli (Echinochloa crusgalli): A (Fresh weight inhibition rate≥80% to 100%)

CCC[S+]([O-])c1c(S(C)(=O)=O)ccc(C(=O)Nc2nnn[nH]2)c1Cl (racemic) [Compound 1-78]
Control efficacy grade, Eclipta prostrata (Eclipta prostrata): A (Fresh weight inhibition rate≥80% to 100%) | Control efficacy grade, Leptochloa chinensis (Leptochloa chinensis): A (Fresh weight inhibition rate≥80% to 100%) | Control efficacy grade, Digitaria sanguinalis (Digitaria sanguinalis): A (Fresh weight inhibition rate≥80% to 100%) | Control efficacy grade, Cyperus iria (Cyperus iria): A (Fresh weight inhibition rate≥80% to 100%) | Control efficacy grade, Echinochloa crusgalli (Echinochloa crusgalli): A (Fresh weight inhibition rate≥80% to 100%)

CC(C)[S+]([O-])c1c(S(C)(=O)=O)ccc(C(=O)Nc2nnn[nH]2)c1Cl (racemic) [Compound 1-83]
Control efficacy grade, Eclipta prostrata (Eclipta prostrata): A (Fresh weight inhibition rate≥80% to 100%) | Control efficacy grade, Leptochloa chinensis (Leptochloa chinensis): A (Fresh weight inhibition rate≥80% to 100%) | Control efficacy grade, Digitaria sanguinalis (Digitaria sanguinalis): A (Fresh weight inhibition rate≥80% to 100%) | Control efficacy grade, Cyperus iria (Cyperus iria): A (Fresh weight inhibition rate≥80% to 100%) | Control efficacy grade, Echinochloa crusgalli (Echinochloa crusgalli): A (Fresh weight inhibition rate≥80% to 100%)

CCC[S+]([O-])c1c(S(C)(=O)=O)ccc(C(=O)Nc2nnnn2CC)c1Cl (racemic) [Compound 1-88]
Control efficacy grade, Eclipta prostrata (Eclipta prostrata): A (Fresh weight inhibition rate≥80% to 100%) | Control efficacy grade, Leptochloa chinensis (Leptochloa chinensis): A (Fresh weight inhibition rate≥80% to 100%) | Control efficacy grade, Digitaria sanguinalis (Digitaria sanguinalis): A (Fresh weight inhibition rate≥80% to 100%) | Control efficacy grade, Cyperus iria (Cyperus iria): A (Fresh weight inhibition rate≥80% to 100%) | Control efficacy grade, Echinochloa crusgalli (Echinochloa crusgalli): A (Fresh weight inhibition rate≥80% to 100%)

CCC[S+]([O-])c1c(S(C)(=O)=O)ccc(C(=O)Nc2ncnn2C)c1Cl (racemic) [Compound 2-2]
Control efficacy grade, Eclipta prostrata (Eclipta prostrata): A (Fresh weight inhibition rate≥80% to 100%) | Control efficacy grade, Leptochloa chinensis (Leptochloa chinensis): A (Fresh weight inhibition rate≥80% to 100%) | Control efficacy grade, Digitaria sanguinalis (Digitaria sanguinalis): A (Fresh weight inhibition rate≥80% to 100%) | Control efficacy grade, Cyperus iria (Cyperus iria): A (Fresh weight inhibition rate≥80% to 100%) | Control efficacy grade, Echinochloa crusgalli (Echinochloa crusgalli): A (Fresh weight inhibition rate≥80% to 100%)

CC(C)[S+]([O-])c1c(S(C)(=O)=O)ccc(C(=O)Nc2ncnn2C)c1Cl (racemic) [Compound 2-7, 2-chloro-3-(isopropylsulfinyl)-N-(1-methyl-1H-1,2,4-triazol-5-yl)-4-(methylsulfonyl)benzamide]
pest or weed control at 150 g/ha (Eclipta prostrata; Eclipta prostrata, read-out: Control efficacy grade, Eclipta prostrata): 80 to 100% | pest or weed control at 150 g/ha (Leptochloa chinensis; Dinebra chinensis, read-out: Control efficacy grade, Leptochloa chinensis): 80 to 100% | pest or weed control at 150 g/ha (Digitaria sanguinalis; Digitaria sanguinalis, read-out: Control efficacy grade, Digitaria sanguinalis): 80 to 100% | pest or weed control at 150 g/ha (Cyperus iria; Cyperus iria, read-out: Control efficacy grade, Cyperus iria): 80 to 100% | pest or weed control at 150 g/ha (Echinochloa crusgalli; Echinochloa crus-galli, read-out: Control efficacy grade, Echinochloa crusgalli): 80 to 100%

CCCC[S+]([O-])c1c(S(C)(=O)=O)ccc(C(=O)Nc2ncnn2C)c1Cl (racemic) [Compound 2-12]
Control efficacy grade, Eclipta prostrata (Eclipta prostrata): A (Fresh weight inhibition rate≥80% to 100%) | Control efficacy grade, Leptochloa chinensis (Leptochloa chinensis): A (Fresh weight inhibition rate≥80% to 100%) | Control efficacy grade, Digitaria sanguinalis (Digitaria sanguinalis): A (Fresh weight inhibition rate≥80% to 100%) | Control efficacy grade, Cyperus iria (Cyperus iria): A (Fresh weight inhibition rate≥80% to 100%) | Control efficacy grade, Echinochloa crusgalli (Echinochloa crusgalli): A (Fresh weight inhibition rate≥80% to 100%)

CCC(C)S(=O)(=O)c1c(S(C)(=O)=O)ccc(C(=O)Nc2ncnn2C)c1Cl (racemic) [Compound 2-24]
Control efficacy grade, Eclipta prostrata (Eclipta prostrata): A (Fresh weight inhibition rate≥80% to 100%) | Control efficacy grade, Leptochloa chinensis (Leptochloa chinensis): A (Fresh weight inhibition rate≥80% to 100%) | Control efficacy grade, Digitaria sanguinalis (Digitaria sanguinalis): A (Fresh weight inhibition rate≥80% to 100%) | Control efficacy grade, Cyperus iria (Cyperus iria): A (Fresh weight inhibition rate≥80% to 100%) | Control efficacy grade, Echinochloa crusgalli (Echinochloa crusgalli): A (Fresh weight inhibition rate≥80% to 100%)

Cn1ncnc1NC(=O)c1ccc(S(C)(=O)=O)c([S+]([O-])CC2CC2)c1Cl (racemic) [Compound 2-28]
Control efficacy grade, Eclipta prostrata (Eclipta prostrata): A (Fresh weight inhibition rate≥80% to 100%) | Control efficacy grade, Leptochloa chinensis (Leptochloa chinensis): A (Fresh weight inhibition rate≥80% to 100%) | Control efficacy grade, Digitaria sanguinalis (Digitaria sanguinalis): A (Fresh weight inhibition rate≥80% to 100%) | Control efficacy grade, Cyperus iria (Cyperus iria): A (Fresh weight inhibition rate≥80% to 100%) | Control efficacy grade, Echinochloa crusgalli (Echinochloa crusgalli): A (Fresh weight inhibition rate≥80% to 100%)

Cn1ncnc1NC(=O)c1ccc(S(C)(=O)=O)c([S+]([O-])C2CC2)c1Cl (racemic) [Compound 2-33]
Control efficacy grade, Eclipta prostrata (Eclipta prostrata): A (Fresh weight inhibition rate≥80% to 100%) | Control efficacy grade, Leptochloa chinensis (Leptochloa chinensis): A (Fresh weight inhibition rate≥80% to 100%) | Control efficacy grade, Digitaria sanguinalis (Digitaria sanguinalis): A (Fresh weight inhibition rate≥80% to 100%) | Control efficacy grade, Cyperus iria (Cyperus iria): A (Fresh weight inhibition rate≥80% to 100%) | Control efficacy grade, Echinochloa crusgalli (Echinochloa crusgalli): A (Fresh weight inhibition rate≥80% to 100%)
